Test system: depolymerase from phage-infected E. amylovora NCPPB595
Assay: Effect of chemical agents on depolymerase activity (galactose release from polysaccharide)
Format: biochemical, phage ERA103 / Erwinia amylovora NCPPB595
Details: for Effect of agent on depolymerase activity (in words): Table 2; for Activity % Control: control assay without inhibitors
Description: Depolymerase activity was assayed by following the release of galactose from the polysaccharide substrate according to the method of Fairbridge (Fairbridge,R. A., et al. Biochem. J. 49:423-427 (1951)). The reaction mixture consisted of the following: 100 microliters of the appropriate enzyme solution and 100 microliters of polysaccharide (10 mg/ml) suspended in 0.01M citrate buffer, pH 6.0 containing 0.01M 2-mercaptoethanol. One unit of enzyme was defined as the amount of enzyme required to produce 1 micromole of galactose per minute under standard assay conditions.
Substrate Preparation. Polysaccharide was prepared from uninfected cultures of Erwinia amylovora NCPPB595 cultivated on sheets of cellophane overlaying Tryptic Soy agar, as decribed by Liu (Liu, P.V., et al., J. Infect. Dis. 108:218-228 (1961)). The polysaccharide was extracted from the slime layer according to the method of Liu.
The effect of various chemical agents on depolymerase activity can be seen in Table 2.

[1] = agent 10.0 millimoles per liter

Molecule: OCCS [2-Mercaptoethanol]
- Effect of agent on depolymerase activity (in words): enhanced depolymerase activity substantially
- Activity % Control (agent 0.1 millimoles per liter): 122 % Control
- Activity % Control (agent 1.0 millimoles per liter): 155 % Control
- Activity % Control [1]: 168 % Control

Molecule: Oc1cccc2cccnc12 [8-hydroxyquinoline]
- Effect of agent on depolymerase activity (in words): insensitive

Molecule: OC(CS)C(O)CS (centres unmarked) [Dithiothreitol, 1,4 dimercapto-2,3-butanediol]
- Effect of agent on depolymerase activity (in words): enhanced depolymerase activity substantially
- Activity % Control (agent 0.1 millimoles per liter): 122 % Control
- Activity % Control (agent 1.0 millimoles per liter): 138 % Control
- Activity % Control [1]: 258 % Control

Molecule: O=C(O)CI [Iodoacetate]
- Effect of agent on depolymerase activity (in words): no efect on enzymatic activity
- Activity % Control (agent 0.1 millimoles per liter): 100 % Control
- Activity % Control (agent 1.0 millimoles per liter): 100 % Control
- Activity % Control [1]: 100 % Control

Molecule: CCN1C(=O)C=CC1=O [N--ethylmaleimide, N-ethylmaleimide]
- Effect of agent on depolymerase activity (in words): no efect on enzymatic activity
- Activity % Control (agent 0.1 millimoles per liter): 100 % Control
- Activity % Control (agent 1.0 millimoles per liter): 100 % Control
- Activity % Control [1]: 100 % Control

Molecule: [N-]=[N+]=[N-] [Sodium azide]
- Effect of agent on depolymerase activity (in words): insensitive
- Activity % Control (agent 0.1 millimoles per liter): 100 % Control
- Activity % Control (agent 1.0 millimoles per liter): 100 % Control
- Activity % Control [1]: 100 % Control

Molecule: O=C(O)c1cc[c]([Hg][Cl])cc1 [p-Chloromercuribenzoate]
- Effect of agent on depolymerase activity (in words): inhibited the enzyme at all concentrations tested
- Activity % Control (agent 0.1 millimoles per liter): 0 % Control
- Activity % Control (agent 1.0 millimoles per liter): 0 % Control
- Activity % Control [1]: 0 % Control

Molecule: ethylene-di-(o-hydroxyphenylacetate)
- Effect of agent on depolymerase activity (in words): insensitive
- Activity % Control (agent 0.1 millimoles per liter): 100 % Control
- Activity % Control (agent 1.0 millimoles per liter): 100 % Control
- Activity % Control [1]: 100 % Control

— patent publication US4678750A, “Method and compositions for use in the treatment of fireblight” (Microlife Technics, Inc., priority 1984, dated 1987)
